Legend:
Colo 205 tumors = assay: Growth inhibition of colorectal cell tumors; format: in vivo, nude mice
Method: Tumors were induced in nude mice as described in Example IX except that Colo 205 cells (ATCC CCL 222) were used. Colo 205 cells are human colorectal adenocarcinoma cells. Mice with established subcutaneous tumors of approximately 250 mm^3 were treated with various amounts of 2.13.2 antibody (i.p.) or with 100 mg/kg […] (5-FU, i.v.), either as single agents or in combination, as described in Example IX. […] Mice with established Colo 205 tumors were treated on days 1, 8, 15 and 22 with 500 μg 2.13.2 (i.p.), 100 mg/kg 5-FU (i.v.) or a combination thereof.

Rhesus IGF-IR = assay: Species crossreactivity by immunoprecipitation/Western blot; format: binding; settings: immunoprecipitation, antibody 1 μg/ml
Method: (§1) To perform immunoprecipitation experiments, we plated cells in DMEM high glucose media supplemented with L-glutamine (0.29 mg/ml), 10% heat-inactivated FBS, and 500 μg/ml each of geneticin, penicillin and streptomycin to 50% confluence in T25 flasks. We then added 100 μl of an antibody of the invention in Hank's buffered saline solution (HBSS; Gibco BRL) at a concentration of 1 μg/ml. We incubated the plates for 30 minutes at 37° C. in an incubator and then stimulated the cells with IGF-I at 100 ng/ml for 10 minutes at room temperature. We lysed the cells in RIPA buffer (Harlow and Lane, supra) and immunoprecipitated IGF-IR with 2 μg of pan-specific SC-713 anti-IGF-IR antibody (Santa Cruz) plus protein A agarose beads for 1 hour at 4° C. We pelleted the beads and wash three times with PBS/T (PBS+0.1% Tween-20) and then boiled the beads in 40 μl Laemmli buffer containing 5% βME.
(§2) The samples prepared as described above were then analyzed by Western blot. We loaded 12 μl of each sample per lane on 4-10% gradient Novex™ gels run with 1×MES buffer (Novex™). Gels were run at 150V for 1 hour or at 200V for approximately 30 minutes. We then transferred the gel to a membrane in Novex™ transfer buffer with 10% methanol either overnight at 100 mA or for 1-1.5 hours at 250 mA. We then allowed the membrane to dry completely and blocked at room temperature with TBS (Tris-buffered saline pH 8.0) containing Superblock (Pierce Chemical Co.). We added the IGF-IR blotting antibody SC713 (Santa Cruz) to detect immunoprecipitated IGF-IR.

canine IGF-IR = assay: as above; format: binding; settings: immunoprecipitation, antibody 1 μg/ml
Method: as §1, §2

guinea pig IGF-IR = assay: as above; format: binding; settings: immunoprecipitation, antibody 1 μg/ml
Method: as §1, §2

IGF-IR from the marmoset = assay: as above; format: binding; settings: immunoprecipitation, antibody 1 μg/ml
Method: as §1, §2

rabbit IGF-IR = assay: as above; format: binding; settings: immunoprecipitation, antibody 1 μg/ml
Method: as §1, §2

[1] = molecular target: T1, extracellular domain of IGF-IR (Homo sapiens, UniProt P08069); assay: BIAcore affinity measurement, Protocol 2; format: binding; settings: BIAcore 3000; as Fagerstam et al.
T1 construct: Different concentrations of the extracellular domain of IGF-IR were injected on the sensorchip
Method: We performed affinity measures of purified antibodies by surface plasmon resonance using the BIAcore 3000 instrument, following the manufacturer's protocols.
BIAcore measurements were performed essentially as described by Fagerstam et al. “Detection of antigen-antibody interactions by surface plasmon resonance. Applications to epitope mapping.” J. Mol. Recog. 3: 208-214. (1990).

IGF-IR = IGF-IR (Homo sapiens, UniProt P08069); assay: Species crossreactivity by immunoprecipitation/Western blot; format: binding; set-up: on cells from a variety of animals; endogenous in cells; settings: immunoprecipitation, antibody 1 μg/ml
Method: as §1
The samples prepared as described above were then analyzed by Western blot. We loaded 12 μl of each sample per lane on 4-10% gradient Novex™ gels run with 1×MES buffer (Novex™). Gels were run at 150V for 1 hour or at 200V for approximately 30 minutes. We then transferred the gel to a membrane in Novex™ transfer buffer with 10% methanol either overnight at 100 mA or for 1-1.5 hours at 250 mA. […]

## 2.13.2: human IgG2κ monoclonal antibody specific for IGF-IR from hybridoma 2.13.2 (ATCC PTA-2788)
Colo 205 tumors; 500 μg i.p. on days 1, 8, 15 and 22
  Colo 205 tumor growth: inhibits human colorectal cancer cell growth
Colo 205 tumors; 500 μg i.p. on days 1, 8, 15 and 22 with 100 mg/kg 5-FU i.v.
  effect on effectiveness of 5-FU: enhances the effectiveness of 5-FU
Colo 205 tumors; antibody given once with 100 mg/kg 5-FU i.v.
  effect on effectiveness of 5-FU: enhances the effectiveness of 5-FU
Colo 205 tumors; antibody i.p. given once, single agent
  Colo 205 tumor growth: inhibits human colorectal cancer cell growth
Rhesus IGF-IR
  binding to Rhesus IGF-IR: able to bind
Canine IGF-IR
  binding to canine IGF-IR: not
Guinea pig IGF-IR
  binding to guinea pig IGF-IR: not
IGF-IR from the marmoset
  binding to marmoset IGF-IR: not
Rabbit IGF-IR
  binding to rabbit IGF-IR: not
[1]
  Kd: 1.53 nM
IGF-IR
  binding to human IGF-IR: able to bind
